Values quoted from earlier work, collected in patent US20230201166A1, “METHODS FOR TREATING CANCER BY INHIBITING CARM1” (DANA-FARBER CANCER INSTITUTE, INC., priority 2020, published 2023).
Where two headings read alike, the source gives them in different places.

Legend:
[1] = target: T1, CARM1 (Homo sapiens, UniProt Q86X55); settings: read-out: CARM1 ICW IC50; cited from earlier work
T1 sequence (Q86X55 1-608): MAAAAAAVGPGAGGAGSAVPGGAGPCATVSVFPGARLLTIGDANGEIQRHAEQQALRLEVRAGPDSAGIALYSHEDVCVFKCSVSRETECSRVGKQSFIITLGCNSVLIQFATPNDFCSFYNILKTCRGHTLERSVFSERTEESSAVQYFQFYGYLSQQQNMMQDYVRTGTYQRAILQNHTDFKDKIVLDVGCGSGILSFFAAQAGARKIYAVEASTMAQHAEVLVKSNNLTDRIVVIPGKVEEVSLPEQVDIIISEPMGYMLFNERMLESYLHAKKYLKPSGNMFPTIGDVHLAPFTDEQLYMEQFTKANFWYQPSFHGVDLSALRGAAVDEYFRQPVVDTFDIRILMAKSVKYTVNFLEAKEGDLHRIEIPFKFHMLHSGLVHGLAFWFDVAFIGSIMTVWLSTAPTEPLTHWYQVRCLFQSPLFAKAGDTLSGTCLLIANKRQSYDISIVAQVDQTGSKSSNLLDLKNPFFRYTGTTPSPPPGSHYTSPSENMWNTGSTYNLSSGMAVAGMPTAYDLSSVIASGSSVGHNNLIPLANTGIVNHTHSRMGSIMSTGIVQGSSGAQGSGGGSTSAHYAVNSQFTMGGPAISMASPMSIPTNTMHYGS

[2] = target: T1, CARM1; settings: read-out: CARM1 Biochemical IC50; cited from earlier work

Row | Compound | IC50 [1] | IC50 [2]
1 | CC(C)n1ncc2c(N3CCOCC3)cc(-c3cccc(OCC(O)CN)c3)nc21 (centres unmarked) [compound 2] | 19 µM | 
2 | CNC[C@@H](O)COc1cc(-c2nc(-c3c(C)noc3C)c(C)c(N3CC4(CCN(C(=O)OC)CC4)C3)n2)ccc1Cl [compound 3] | > 6.5 µM | > 1 µM
3 | CNC[C@@H](O)COc1ccc(Cl)c(-c2nc(-c3c(C)noc3C)c(C)c(N3Cc4cnc(N5CCC5)nc4C3)n2)c1 [EPZ025654] | 0.011 µM | 
4 | Cn1cnc2ccc(-c3cccc(OCC(O)CN)c3)nc21 (centres unmarked) [compound 1] | > 20 µM | 
